Values of other authors in patent US20200354402A1, “PEPTIDE COMPOSITIONS AND RELATED METHODS” (Allegro Pharmaceuticals, LLC, priority 2017, published 2020).

System: ischemia-induced retinal neovascularization
Conditions: intravitreal injection; stated as known

Substance: R—G—E.TFA [Test Compound 21]
- known activity of the control peptides: known to be inactive
